Laboratory results: patent US10842800B2, “Concomitant administration of glucocorticoid receptor modulators and CYP3A inhibitors” (Corcept Therapeutics, Inc., priority 2017, dated 2020)
Entries after “also recorded” stand apart in the source; their conditions may differ. Where two headings read alike, the source gives them in different places.

How the values were obtained:
Assay type in all cases: in vivo, human
[1] = Ketoconazole PK after a 400 mg single dose on Day 8 of mifepristone 300 or 600 mg OD (Example 2)
From the text: (§1) Subjects were discharged on Day 11.
(§2) Subjects were discharged on Day 11. Subjects in both cohorts returned to study center on Day 13 for safety monitoring, collection of the 120-hour PK draw, and completion of the Termination Visit procedures, followed by discharge from the study. To the extent possible, any adverse events deemed study drug-related and that were ongoing at the time of discharge from the study were followed-up to resolution or until a determination was made that the unresolved event was stable.
(§3) DURATION OF TREATMENT: Up to a total of 28 days, including up to 2 weeks screening, dosing on Days 1-8, safety observation, and PK sample collection through Day 13.
(§4) Descriptive statistics count, mean, median, standard deviation, minimum, maximum, and % coefficient of variation) were provided. Ketoconazole concentrations were listed and summarized. GM means of Cmax and total AUC were compared for the single dose in this study to the combined data of reported 400 mg single doses of ketoconazole of healthy subjects from the literature.

[2] = Safety assessment: adverse events, laboratory tests, ECG (Example 1); details: for TEAEs considered by the investigator to be related to the drug: Example 1
Procedure: (§5) Subjects in both cohorts returned to the study center on Day 15 for safety monitoring, and completion of the Termination Visit procedures, followed by discharge from the study. Safety was assessed by spontaneously reported adverse events, physical examinations, and routine clinical laboratory tests. To the extent possible, any adverse events deemed study drug-related and that were ongoing at the time of discharge from the study were followed-up to resolution or until a determination is made that the unresolved event was stable.

[3] = Effect of co-administration with mifepristone on ketoconazole PK (Example 3); details: Test: Day 17, 600 mg mifepristone OD + 200 mg ketoconazole BID; Reference: Day -1, 200 mg ketoconazole single dose
Procedure: (§6) A single dose of ketoconazole was administered on Day −1.
(§7) The study was a two period study design.

[4] = Effect of ketoconazole 200 mg BID on PK of mifepristone 600 mg OD and metabolites, with food (Example 3); details: for concentrations on Day 17 compared with Day 12: Day 17: mifepristone 600 mg daily + ketoconazole 200 mg twice daily, Day 12: mifepristone alone; for Ratio % Test/Reference, AUC0-24 (geometric mean ratio) / Ratio % Test/Reference, Cmax (geometric mean ratio): Test: Day 17, 600 mg mifepristone OD + 200 mg ketoconazole BID, Reference: Day 12, 600 mg mifepristone OD; for effect of co-administration with ketoconazole on exposure: mifepristone 600 mg OD + ketoconazole 200 mg BID
Procedure: as §6, §7

[5] = Effect of oral ketoconazole 400 mg OD or 200 mg BID on plasma pharmacokinetics of a 300 mg single dose of mifepristone, fasted (Example 1); details: for AUC: male, human, plasma, oral, read-out: AUCtot (mean)
From the text: This study was an open-label study in healthy male subjects.
(§8) Healthy male volunteers between the ages of 18 to 45 years of age with a body mass index (BMI) ranging between 19 and 32 kg/m2 and a weight of at least 60 kg (132 lbs) were enrolled. Subjects had no clinically significant abnormal findings on the physical examination, ECG, blood pressure, heart rate, medical history, or clinical laboratory results during screening. The QTc interval at screening was less than 450 msec.
In cohort 1, six subjects received ketoconazole 400 mg OD for 14 days.
Subjects remained in the clinic on Days 2 and 3 to receive 400 mg OD oral ketoconazole fasted, and for safety evaluation and collection of blood pharmacokinetic (PK) samples. Subjects were discharged from the clinic on Day 4 following administration of 400 mg OD oral ketoconazole fasted, and returned to the clinic the mornings of Days 5 through 13 to receive 400 mg OD oral ketoconazole fasted.
In cohort 2, six subjects received ketoconazole 200 mg BID for 14 days. […] All 12 subjects completed the study. Cohort 2 subjects participated in a Screening visit to assess eligibility and a check-in Day (Day −1) during which eligibility was re-confirmed. […] The evening of Day 1, subjects received 200 mg oral ketoconazole. Subjects remained in the clinic on Days 2, 3 and 4 to receive 200 mg BID oral ketoconazole, and for safety evaluation and collection of blood pharmacokinetic (PK) samples. Subjects were discharged from the clinic on Day 4 following evening administration of 200 mg oral ketoconazole, and returned to the clinic the morning and evening of Days 5 through 13 to receive 200 mg BID oral ketoconazole. Morning doses of ketoconazole on Days 0-13 were administered in the fasted state.
as §5
Descriptive statistics (count, mean, median, standard deviation, minimum, maximum, and % coefficient of variation) were provided. […] Comparisons with previous study data were made.

[6] = Cross-study comparison of exposure to mifepristone and metabolites with historic 1200 mg OD mifepristone study (Example 3); details: for Ratio % Test/Ref, AUC0-24 (geometric mean ratio) / Ratio % Test/Ref, Cmax (geometric mean ratio): Test: present study Day 17, 600 mg mifepristone OD + 200 mg ketoconazole BID, Reference: historic study Day 7, 1200 mg mifepristone OD alone, after 34% fat meal
[7] = Effect of a 400 mg single dose of ketoconazole on PK of an 8-day regimen of 300 mg or 600 mg OD mifepristone, moderate fat breakfast (Example 2)
Procedure: This was an open-label study in healthy male subjects. […] The 400 mg single dose of ketoconazole was given to all subjects on day 8.
METHODOLOGY: Twelve subjects were enrolled, six in Cohort 1 and 6 in Cohort 2.
as §1, §2
as §8, with “DIAGNOSIS AND MAIN […] FOR INCLUSION: Healthy” for “Healthy”
as §3, §4

[8] = Safety assessment: adverse events, physical examinations, laboratory tests (Example 2)
Procedure: Safety was assessed by spontaneously reported adverse events, physical examinations, and routine clinical laboratory tests. Adverse event data were tabulated. Physical findings and laboratory test results were listed by subject.

[9] = Safety: adverse events, laboratory tests, vital signs, ECG (Example 3); details: mifepristone 600 mg OD Days 1-17, ketoconazole 200 mg BID Days 13-17
[10] = Liver function of a patient with excess cortisol on ketoconazole plus reduced mifepristone dose (Examples 4-7); details: concomitant ketoconazole
[11] = single 400 mg ketoconazole dose on Day 8
[12] = 900 mg mifepristone daily with inhibition of CYP3A (extrapolated from 600 mg data)
[13] = MIFE 300 mg single dose fasted, C1: Keto 400 mg OD
[14] = Cohort 2 (600 mg OD), between Day 7 and Day 8

## CC(=O)N1CCN(c2ccc(OCC3COC(Cn4ccnc4)(c4ccc(Cl)cc4Cl)O3)cc2)CC1 (stereo not drawn) [Ketoconazole, 1-acetyl-4-[4-[[2-(2,4-dichlorophenyl)-2-[(1H-imidazol-1-yl)-methyl]-1,3-dioxolan-4-yl]methoxy]phenyl]piperazine]
[1]; single 400 mg dose on Day 8, mifepristone 300 vs 600 mg OD
  ketoconazole half-life on either mifepristone regimen: not appreciably different
[1]; [11]
  ketoconazole AUCinf higher on 600 mg OD relative to 300 mg OD mifepristone regimen: 36%
  ketoconazole Cmax higher on 600 mg OD relative to 300 mg OD mifepristone regimen: 37%
[2]
  TEAEs considered by the investigator to be related to the drug: One TEAE of insomnia
[3]
  Ratio % Test/Reference, AUC (geometric mean ratio): 365.36%
  Ratio % Test/Reference, Cmax (geometric mean ratio): 252.71%

## CC#C[C@]1(O)CC[C@H]2[C@@H]3CCC4=CC(=O)CCC4=C3[C@@H](c3ccc(N(C)C)cc3)C[C@@]21C [Mifepristone, 11β-(4-dimethylaminophenyl)-17β-hydroxy-17α-(1-propynyl)-estra-4,9-dien-3-one]
[4]; [12]
  corresponding increase in mifepristone AUC: 38.01%
  corresponding increase in mifepristone Cmax: 27.59%
[4]
  concentrations on Day 17 compared with Day 12: higher
  Ratio % Test/Reference, AUC0-24 (geometric mean ratio): 138.01%
  Ratio % Test/Reference, Cmax (geometric mean ratio): 127.59%
  effect of co-administration with ketoconazole on exposure: increased
[5]; Cohort 2 vs Cohort 1
  geometric mean ratio (GMR) for AUCinf: 1.05
  geometric mean ratio (GMR) for Cmax: 1.15
[5]; Keto 200 mg BID vs 400 mg OD, MIFE 300 mg single dose
  Mean Ratio Cmax (C2/C1): 1.15 ng/mL
[5]; [13]
  T1/2 (mean): 37.1 h
  AUC: 117 µg·h/mL
[5]; MIFE 300 mg single dose fasted, C2: Keto 200 mg BID
  AUC: 131 µg·h/mL
[6]; 600 mg mifepristone OD + 200 mg ketoconazole BID
  exposures as share of those following the highest labeled dose of mifepristone (1200 mg daily): approximately 85%
[6]
  Ratio % Test/Ref, AUC0-24 (geometric mean ratio): 87.27%
  Ratio % Test/Ref, Cmax (geometric mean ratio): 84.64%
[6]; mifepristone 600 mg co-administered with ketoconazole
  mifepristone exposure less than that of 1200 mg mifepristone in the absence of ketoconazole: 13-15%
[7]; [14]
  increase in AUC0-24: 28%
  increase in Cmax: 39%
[7]; Day 7 without ketoconazole
  AUC0-24 at 600 mg OD greater than at 300 mg OD: 48%
  Cmax at 600 mg OD greater than at 300 mg OD: 42%
[7]; Day 8 with 400 mg ketoconazole
  AUC0-24 at 600 mg OD greater than at 300 mg OD: 52%
  Cmax at 600 mg OD greater than at 300 mg OD: 65%
  half-life at 600 mg OD greater than at 300 mg OD: 13%
[7]; MIFE 300 mg/d C1 Day 7, no ketoconazole
  AUCt (AUC0-24 hours, mean): 37734 ng·h/mL
[7]; MIFE 300 mg/d C1 Day 8, 400 mg Keto single dose
  Cmax (mean): 3240 ng/mL
[8]; four subjects in Cohort 2 (600 mg)
  TEAEs considered possibly or probably related to mifepristone administration: dizziness, nausea, vomiting, dry mouth, and rash
[8]; mifepristone 300 or 600 mg OD 8 days, ketoconazole 400 mg Day 8
  SAE: No subject experienced an SAE
[8]; twelve subjects, mifepristone 300 or 600 mg OD 8 days, ketoconazole 400 mg Day 8
  subjects with at least 1 TEAE: 50%
[9]
  deaths or SAEs: No deaths or SAEs
  severe TEAEs: No severe TEAEs
[2]; 12 subjects, mifepristone 300 mg single dose with ketoconazole for 14 days
  subjects with at least 1 treatment-emergent adverse event (TEAE): 25%
[2]
  TEAEs considered by the investigator to be related to the drug: No TEAE
[2]; mifepristone 300 mg single dose with ketoconazole for 14 days
  serious adverse effect (SAE): No subject experienced a serious adverse effect (SAE); also recorded: No subject experienced an SAE
[10]; mifepristone reduced from 600 mg to 300 mg daily
  liver function of the patient: not significantly compromised
[10]; mifepristone reduced from 900 mg to 600 mg daily
  liver function of the patient: not significantly compromised
[10]; mifepristone reduced from 1200 mg to 900 mg daily
  liver function of the patient: not significantly compromised
[10]; mifepristone reduced from 1500 mg to 1200 mg daily
  liver function of the patient: not significantly compromised

## CC#C[C@]1(O)CC[C@H]2[C@@H]3CCC4=CC(=O)CCC4=C3[C@@H](c3ccc(NC)cc3)C[C@@]21C [RU 42633, (8S,11R,13S,14S,17S)-17-hydroxy-13-methyl-11-[4-(methylamino)phenyl]-17-prop-1-ynyl-1,2,6,7,8,11,12,14,15,16-decahydrocyclopenta[a]phenanthren-3-one]
[4]
  concentrations on Day 17 compared with Day 12: similar
  Ratio % Test/Reference, AUC0-24 (geometric mean ratio): 102.33%
  Ratio % Test/Reference, Cmax (geometric mean ratio): 105.73%
  effect of co-administration with ketoconazole on exposure: not affected by ketoconazole; also recorded: little change in exposure
[6]
  Ratio % Test/Ref, AUC0-24 (geometric mean ratio): 91.34%
  Ratio % Test/Ref, Cmax (geometric mean ratio): 96.31%

## CN(C)c1ccc([C@H]2C[C@@]3(C)[C@@H](CC[C@@]3(O)C#CCO)[C@@H]3CCC4=CC(=O)CCC4=C32)cc1 [RU 42698, (8S,11R,13S,14S,17S)-11-[4-(dimethylamino)phenyl]-17-hydroxy-17-(3-hydroxyprop-1-ynyl)-13-methyl-1,2,6,7,8,11,12,14,15,16-decahydrocyclopenta[a]phenanthren-3-one]
[4]
  concentrations on Day 17 compared with Day 12: higher
  Ratio % Test/Reference, AUC0-24 (geometric mean ratio): 166.86%
  Ratio % Test/Reference, Cmax (geometric mean ratio): 169.13%
  effect of co-administration with ketoconazole on exposure: increased by ketoconazole
[4]; co-administration with ketoconazole 200 mg BID, mifepristone 600 mg OD
  mean increase in exposure: approximately 70%
[6]
  Ratio % Test/Ref, AUC0-24 (geometric mean ratio): 118.18%
  Ratio % Test/Ref, Cmax (geometric mean ratio): 116.55%
[7]; mifepristone 300 or 600 mg OD
  mean metabolite exposure compared with mifepristone: lower

## CC#C[C@]1(O)CC[C@H]2[C@@H]3CCC4=CC(=O)CCC4=C3[C@@H](c3ccc(N)cc3)C[C@@]21C [RU 42848, (8S,11R,13S,14S,17S)-11-(4-aminophenyl)-17-hydroxy-13-methyl-17-prop-1-ynyl-1,2,6,7,8,11,12,14,15,16-decahydrocyclopenta[a]phenanthren-3-one]
[4]
  concentrations on Day 17 compared with Day 12: similar
  Ratio % Test/Reference, AUC0-24 (geometric mean ratio): 94.88%
  Ratio % Test/Reference, Cmax (geometric mean ratio): 95.48%
  effect of co-administration with ketoconazole on exposure: not affected by ketoconazole; also recorded: little change in exposure
[6]
  Ratio % Test/Ref, AUC0-24 (geometric mean ratio): 81.43%
  Ratio % Test/Ref, Cmax (geometric mean ratio): 82.45%
